Assay results: paper doi:10.1101/2025.02.26.640323, “Aggregation-Dependent Epitope Sequence and Modification Fingerprints of Anti-Aβ Antibodies” (bioRxiv, 2025)
“Also recorded” adds a separate entry of the source.

Columns and labels:
[1] = test system: amyloid precursor protein (APP770) residues 649–722; test: Peptide microarray epitope pre-screening (overlapping 15-mers); assay type: binding, human; conditions: 0.5–1 μg/mL antibody
Method: Information regarding binding epitopes and /or immunogens for most of the tested Aβ-Abs has been published and is summarized in Table 1. However, the binding epitope information was derived from varying methodologies. To provide an initial side-by-side comparison we pre-screened all of the listed Aβ-Abs in array format using copies of peptide libraries and standard antibody concentrations of 0.5–1 μg/mL (Figure 1a). The library comprised the amyloid precursor protein (APP770) residues 649–722, corresponding to the canonical Aβ1–42 amino acid sequence with additional 23 amino terminal and 9 carboxy terminal residues. […] For optimal signal to noise ratios and ideal selectivity profiles on the microarrays, the Aβ-Ab concentrations were adjusted for 3D6, 82E1, 11H3, 80C2 and 7H3D6 (Figure 1 – figure- supplement 1) and (Appendix 1–7). […] Specifically, Donanemabbs, 2–48 and Aβ-pE3 were raised against AβpE3-x (Table 1) and were expected to show preference for Aβ peptides starting with a pE(3).
Figure 1. Microarray workflow and Aβ-Ab epitope pre-screening. (a) Schematic of the microarray workflow. The library comprised the amyloid precursor protein (APP) residues 649–722 (APP770 numbering), corresponding to Aβ residues −23 to 51, as a library of 15-mer peptides overlapping by 14AAs, copied in dozens, and probed for Aβ-Abs binding followed by analysis in MARTin. (b) The epitope screening binding data are summarized as a heatmap. Blue and red shades indicate the relative binding strength of the related arrayed peptides to the left and cognate Aβ-Ab on top. The blue – red scale is visualizing the normalized binding intensity for each antibody individually. The applied antibody concentrations ranged between 0.5–1 μg/mL.
The μSPOT assay was performed as previously described. […] Peptide arrays were synthesized using MultiPep RSi robot (CEM GmbH, Kamp-Lintford, Germany) on cellulose discs containing Fmoc-β-Ala linkers. Natural amino acid building blocks were purchased from IRIS (IRIS Biotech GmbH, Marktredwitz, Germany). Special building blocks employed in this study such as isomers, stereoisomers, phosphorylation and pyroglutamination […] modifications are listed here: Fmoc-L-Ser(PO(OBzl)OH)-OH (Iris – FAA1423), L-Pyroglutamic acid pentachlorophenyl ester (Novabiochem - 8.54203), Fmoc-L-Asp-OtBu (Iris – FAA1356), Fmoc-D-Asp-OtBu (Carbosolutions – CC05095) and Fmoc-D-Asp(tBu)-OH (Iris – FAA1309). Synthesis was carried out by deprotecting the Fmoc-group using 20% piperidine in dimethylformamide (DMF). Peptide chains were elongated using a coupling solution consisting of amino acids (0.5M) with oxyma (1M) and DIC (1M) in DMF (1:1:1). Coupling steps were carried out 3 times (30min), followed by capping (4% acetic anhydride in DMF). Discs were transferred into 96 deep-well plates for the work-up.

[2] = test system: AβpE3-x; test: PTM-Aβ microarray, pE3; assay type: binding, human; conditions: Donanemabbs 0,0012μg/mL, 2–48, Aβ-pE3, IC16 […], vs Aβ3-x with non-cyclized Glu
From the text: Specific PTMs might be associated with different stages of AD progression and severity, offering potential biomarkers for diagnosis and prognosis. Targeting PTMs represents a potential therapeutic strategy to prevent Aβ aggregation and neurotoxicity, thereby slowing disease progression. […] Therefore, a selected group of PTM-carrying Aβ peptides (PTM-Aβ) were incorporated into the Aβ chip to explore the potential binding preference of selected Aβ-Abs, under optimized concentrations (Figure 3). The antibodies were tested with both PTM-Aβ and the corresponding unmodified variants to provide a head-to-head comparison. This screening was performed in the presence of Aβ phosphorylated at positions Ser(8) or Ser(26), N-terminal pE at position 3, racemization/isomerization of Asp at position 1, and unmodified N-terminal variants. The dataset is divided into sections (Figure 3 a–f) for enhanced visualization, where each antibody was screened simultaneously against all peptides to locate their epitope preferences. […] A set of antibodies without reported PTM preference was applied here as controls (refer to Table 1), namely 11H3, 101–1-1, IC16, 82E1 and 3D6.
Figure 3. […] Blue and red shades indicate the binding strength over the related arrayed […] modified peptide shown on top and cognate anti-Aβ antibody to the left. […]

[3] = test system: Aβ; conditions: ref [47],[64],[57],[14]; cited from earlier work
[4] = test system: CAA fibrils; conditions: ref [38],[47]; cited from earlier work
From the text: Despite extensive structural, genetic, and pre-clinical investigations, clinical trials of Aβ antibodies have yielded ambiguous outcomes. Aβ antibody binding to cerebral amyloid angiopathy (CAA) has been hypothesized to correlate with the frequency of amyloid-related imaging abnormalities with edema (ARIA-E) observed in patients treated with Aβ-based immunotherapies.

Donanemab: Eli Lilly's Donanemab, approved in the US as Kisunla [reference compound]
Array: epitope identified in this study on microarrays ([1]; Aβ residue numbers, 15-mer peptides overlapping by 14AAs on cellulose conjugates, chemiluminescence): 3–10
binding in epitope pre-screening ([1]; unmodified Aβ-related 15-mers, generic pre-screening conditions): produced detectable signals in this pre-screening with unmodified Aβ-related peptides
selectivity for / binding to AβpE3-x [2]: cyclized AβpE3-x as the dominant binding determinant
reported selectivity for modified Aβ [3]: selective for AβpE3; also recorded: known to recognize Aβ starting with cyclized pE3
binding to CAA fibrils [4]: binds to CAA fibrils in proportion to the amount of pyroglutamate-modified Aβ they present
